Data on seven compounds can be found in patent US9012200B2, “Composition of bacterial strains, bioremediation mixture and use of this composition for the removal of contaminants from the soil and the method for purifying the soil contaminants” (priority 2012, dated 2015).

For orientation: MIC means the smallest concentration in the dilution series that meets the test's criterion for growth inhibition.

Holding throughout (format): cell-based
The subject of test [1] is Achromobacter sp. strain 4P. Briefly: Disc diffusion antibiotic susceptibility. The conditions noted are these: 24 h. Here is the method: (§1) A disc diffusion method was performed to determine the susceptibility of bacteria to the selected antibiotics. We used discs soaked with the antibiotic of a well-defined concentration (BioMerioux) (Table 2) and the minimal inhibitory concentration test was carried out, using E-tests (Oxoid) (Table 3).
(§2) A McFarland's 0.5 inoculum was prepared from each strain's culture, using a densitometer (EMO). Then, using sterile cotton swabs, the suspension of bacterial cells was spread on dishes with ready-to-use MHA medium (Oxoid), and after 15 minutes, discs soaked with antibiotics at defined concentrations were placed on them.
(§3) The dishes were incubated at 25-30° C., and the results were read after 24 and 48 hours. The measure of susceptibility of a tested strain to a given antibiotic was the size of the inhibition zone which formed around the disc soaked with the antibiotic. The results read (sizes of zones measured in mm) were compared with the data contained in the European Committee on Antimicrobial Susceptibility Testing (EUCAST) standards from 2010 (Table 4).
(§4) The measure of susceptibility of the tested bacterial strain to a given antibiotic was the size of the inhibition zone which formed around the disc (Table 5).
In general terms: Agar diffusion results depend on both activity and mobility in agar.

The test system of test [2] is Arthrobacter sp. strain 1N. The test is described as follows: Disc diffusion antibiotic susceptibility. The following applies: 24 h. Here is the method: as §1, §2, §3, §4
Test [3] relates to Brevundimonas sp. strain 2N. The test is described as follows: Disc diffusion antibiotic susceptibility. The conditions noted are these: 24 h. Here is the method: as §1, §2, §3, §4
Test [4] concerns Brevundimonas sp. strain 5N. Briefly: Disc diffusion antibiotic susceptibility. The conditions noted are these: 24 h. The procedure:
as §1, §2, §3, §4

Test [5] has as its system Brevundimonas sp. strain 6N. The test is described as follows: Disc diffusion antibiotic susceptibility. The conditions noted are these: 24 h. The procedure:
as §1, §2, §3, §4

In test [6] the test system is Pseudomonas sp. strain 3G. The test is described as follows: Disc diffusion antibiotic susceptibility. The following applies: 24 h. Here is the method:
as §1, §2, §3, §4

Test [7] has as its system Pseudomonas sp. strain 4G. The test is described as follows: Disc diffusion antibiotic susceptibility. The conditions noted are these: 24 h. Here is the method:
as §1, §2, §3, §4

Test [8] has as its system Stenotrophomonas sp. strain 2L. Briefly: Disc diffusion antibiotic susceptibility. The conditions noted are these: 24 h. Here is the method:
as §1, §2, §3, §4

Test [9] relates to Stenotrophomonas sp. strain 3N. Briefly: Disc diffusion antibiotic susceptibility. The conditions noted are these: 24 h. The procedure: as §1, §2, §3, §4
Test [10] relates to Stenotrophomonas sp. strain 5L. Briefly: Disc diffusion antibiotic susceptibility. The procedure: as §1, §2, §3, §4
The subject of test [11] is Stenotrophomonas sp. strain 6L. The test is described as follows: Disc diffusion antibiotic susceptibility. The conditions noted are these: 24 h. The procedure: as §1, §2, §3, §4
Test [12] concerns Achromobacter sp. strain 4P. The test is described as follows: Antibiotic MIC by E-test. The conditions noted are these: Achromobacter, 24 h, read-out: MIC threshold values for a given antibiotic. The procedure: as §1
(§5) In the next stage of the research, MIC values of a given antibiotic for the investigated strains were determined, meaning the lowest concentration of the drug, expressed in mg/L, determined in vitro, which inhibits the growth of bacteria at a defined inoculum density, within a given time (Hryniewicz et at, 2001). These studies allow for the closer determination of the degree of susceptibility of bacteria to the applied antibiotics.
(§6) A bacterial suspension was evenly distributed on dishes with ready-to-use MHA medium (Oxoid), and then plastic testing strips (E-tests) soaked with an antibiotic with a concentration gradient were placed thereon. The dishes were incubated at 25-30° C. for 24 h, and the test results were read after this time.
(§7) The intersection of elliptical zone of inhibition, which appeared around the test strip, with the value indicator on the gradient scale of the strip, determined the lowest concentration of antibiotic, inhibiting growth of the microorganism (MIC). Similarly as in the disc diffusion method, the obtained results were compared with the guidelines contained in the relevant standards.

The test system of test [13] is Arthrobacter sp. strain 1N. The test is described as follows: Antibiotic MIC by E-test. The following applies: Arthrobacter, 24 h, read-out: MIC threshold values for a given antibiotic. The procedure: as §1, §5, §6, §7
The subject of test [14] is Brevundimonas sp. strain 2N. The test is described as follows: Antibiotic MIC by E-test. The conditions noted are these: Brevundimonas, 24 h, read-out: MIC threshold values for a given antibiotic. Here is the method:
as §1, §5, §6, §7

The subject of test [15] is Brevundimonas sp. strain 5N. Briefly: Antibiotic MIC by E-test. The following applies: Brevundimonas, 24 h, read-out: MIC threshold values for a given antibiotic. Here is the method: as §1, §5, §6, §7
The test system of test [16] is Brevundimonas sp. strain 6N. The test is described as follows: Antibiotic MIC by E-test. The following applies: Brevundimonas, 24 h, read-out: MIC threshold values for a given antibiotic. The procedure:
as §1, §5, §6, §7

Test [17] relates to Pseudomonas sp. strain 3G. The test is described as follows: Antibiotic MIC by E-test. The following applies: Pseudomonas, 24 h, read-out: MIC threshold values for a given antibiotic. The procedure: as §1, §5, §6, §7
Test [18] has as its system Pseudomonas sp. strain 4G. The test is described as follows: Antibiotic MIC by E-test. The conditions noted are these: Pseudomonas, 24 h, read-out: MIC threshold values for a given antibiotic. The procedure:
as §1, §5, §6, §7

Test [19] deals with Stenotrophomonas sp. strain 2L. Briefly: Antibiotic MIC by E-test. The conditions noted are these: Stenotrophomonas, 24 h, read-out: MIC threshold values for a given antibiotic. Here is the method: as §1, §5, §6, §7
In test [20] the test system is Stenotrophomonas sp. strain 3N. The test is described as follows: Antibiotic MIC by E-test. The conditions noted are these: Stenotrophomonas, 24 h, read-out: MIC threshold values for a given antibiotic. Here is the method:
as §1, §5, §6, §7

The subject of test [21] is Stenotrophomonas sp. strain 5L. Briefly: Antibiotic MIC by E-test. The conditions noted are these: Stenotrophomonas, 24 h, read-out: MIC threshold values for a given antibiotic. The procedure: as §1, §5, §6, §7
Test [22] relates to Stenotrophomonas sp. strain 6L. Briefly: Antibiotic MIC by E-test. The conditions noted are these: Stenotrophomonas, 24 h, read-out: MIC threshold values for a given antibiotic. Here is the method:
as §1, §5, §6, §7

SMILES strings stand for the structures. In brackets after ≈: the same amount, converted by molar mass. Where two headings read alike, the source gives them in different places.

`O=C(O)c1cn(C2CC2)c2cc(N3CCNCC3)c(F)cc2c1=O` [CIP, ciprofloxacin]: the “Size of the growth inhibition zone” value in test [1], in [2], in test [3], in test [4], in test [5] and in test [6] was 0 mm throughout. Besides, the “Size of the growth inhibition zone” value in test [7] is 0 mm; in [8], 0 mm; in test [9], 0 mm; in [10] (24 h), 10 mm; in [10] (48 h), 0 mm; in [11] it was 0 mm. For the same compound, the MIC was at least 32 µg/mL in test [12] (strain 4P, E-test); at least 32 µg/mL in [13] (strain 1N, E-test); at least 32 µg/mL in test [14]; at least 32 µg/mL in test [15]; at least 32 µg/mL in [16]; at least 32 µg/mL in test [17]. Moreover, the MIC is at least 32 µg/mL in [18]; at least 32 µg/mL in [19]; at least 32 µg/mL in test [20]; 4 µg/mL (≈ 12.1 µM) in test [21]; at least 32 µg/mL in test [22].
Take `CC[C@H]1OC(=O)[C@H](C)[C@@H](O[C@H]2C[C@@](C)(OC)[C@@H](O)[C@H](C)O2)[C@H](C)[C@@H](O[C@@H]2O[C@H](C)C[C@H](N(C)C)[C@H]2O)[C@](C)(O)C[C@@H](C)C(=O)[C@H](C)[C@@H](O)[C@]1(C)O` [E, erythromycin]: the “Size of the growth inhibition zone” value in test [1], in [2], in test [3], in [4], in test [5] and in [6] was 0 mm each time. Also, the “Size of the growth inhibition zone” value in test [7], in [8], in test [9], in test [10] (24 h) and in [11] was 0 mm each time. For the same compound, the MIC was 256 µg/mL (≈ 349 µM) in [12] (strain 4P, E-test); 256 µg/mL (≈ 349 µM) in test [13] (strain 1N, E-test); 128 µg/mL (≈ 174 µM) in [14]; 256 µg/mL (≈ 349 µM) in [15]; 256 µg/mL (≈ 349 µM) in test [16]; at least 256 µg/mL in test [17]. Further, the MIC in [18], in test [19], in test [20], in [21] and in test [22] was at least 256 µg/mL each time.
For `CCn1cc(C(=O)O)c(=O)c2cc(F)c(N3CCNCC3)cc21` [NX, norfloxacin], the MIC in test [12] (strain 4P, E-test) was found to be 256 µg/mL (≈ 802 µM); in [13] (strain 1N, E-test), 96 µg/mL (≈ 301 µM); in [14] it was 256 µg/mL (≈ 802 µM); in test [15], 128 µg/mL (≈ 401 µM); in [16] it was 96 µg/mL (≈ 301 µM); in test [17], 192 µg/mL (≈ 601 µM). The MIC is above 256 µg/mL in [18]; 128 µg/mL (≈ 401 µM) in test [19]; 128 µg/mL (≈ 401 µM) in test [20]; 32 µg/mL (≈ 100 µM) in test [21]; 128 µg/mL (≈ 401 µM) in [22].
Take `CC1(C)S[C@@H]2[C@H](NC(=O)Cc3ccccc3)C(=O)N2[C@H]1C(=O)O` [P, penicillin G]: the “Size of the growth inhibition zone” value in [1], in test [2], in [3], in test [4], in [5] and in test [6] was 0 mm throughout. The “Size of the growth inhibition zone” value in [7], in [8], in test [9], in test [10] (24 h) and in [11] was 0 mm throughout. The MIC in [12] (strain 4P, E-test) was at least 32 µg/mL; in test [13] (strain 1N, E-test) it was at least 32 µg/mL; in [14], at least 32 µg/mL; in test [15], at least 32 µg/mL; in test [16], at least 32 µg/mL; in [17], at least 32 µg/mL. The MIC in test [18], in test [19], in test [20], in test [21] and in test [22] was at least 32 µg/mL in each case.
`Cc1cc(NS(=O)(=O)c2ccc(N)cc2)no1` [RL, sulfamethoxazole]: the “Size of the growth inhibition zone” value in test [1], in test [2], in [3], in test [4], in [5] and in [6] was 0 mm throughout. Besides, the “Size of the growth inhibition zone” value in test [7], in test [8], in [9], in test [10] (24 h) and in test [11] was 0 mm in each case. For the same compound, the MIC was 12 µg/mL (≈ 47.4 µM) in test [12] (strain 4P, E-test); 12 µg/mL (≈ 47.4 µM) in test [13] (strain 1N, E-test); 12 µg/mL (≈ 47.4 µM) in [14]; at least 1020 µg/mL in [15]; at least 1020 µg/mL in test [16]; at least 1020 µg/mL in test [17]. Further, the MIC in test [18] is at least 1020 µg/mL; in test [19], 6 µg/mL (≈ 23.7 µM); in test [20] it was 12 µg/mL (≈ 47.4 µM); in [21], 8 µg/mL (≈ 31.6 µM); in test [22], 12 µg/mL (≈ 47.4 µM).
As for `CO/N=C(\C(=O)N[C@@H]1C(=O)N2C(C(=O)O)=C(CSc3nc(=O)c(=O)[nH]n3C)CS[C@H]12)c1csc(N)n1` [TX, ceftriaxone], the MIC is 16 µg/mL (≈ 28.9 µM) in test [12]; at least 256 µg/mL in test [13] (strain 1N, E-test); at least 256 µg/mL in test [14]; at least 256 µg/mL in test [15]; at least 256 µg/mL in test [16]; at least 256 µg/mL in test [17]. Also, the MIC in test [18], in [19], in [20], in [21] and in test [22] was at least 256 µg/mL each time.
Regarding `CN[C@H](CC(C)C)C(=O)N[C@H]1C(=O)N[C@@H](CC(N)=O)C(=O)N[C@H]2C(=O)N[C@H]3C(=O)N[C@H](C(=O)N[C@H](C(=O)O)c4cc(O)cc(O)c4-c4cc3ccc4O)[C@H](O)c3ccc(c(Cl)c3)Oc3cc2cc(c3O[C@@H]2O[C@H](CO)[C@@H](O)[C@H](O)[C@H]2O[C@H]2C[C@](C)(N)[C@H](O)[C@H](C)O2)Oc2ccc(cc2Cl)[C@H]1O` [VA, vancomycin], the “Size of the growth inhibition zone” value in test [1], in [2], in test [3], in test [4], in test [5] and in test [6] was 0 mm each time. Moreover, the “Size of the growth inhibition zone” value in test [7], in [8], in test [9], in test [10] (24 h) and in test [11] was 0 mm in each case. Also, the MIC in test [13] was at least 256 µg/mL.
